“And” between values parts separate entries of the source, which are not always exact repeats. Equal values may be shown once.
Experiments:
[1] = parameters: method as in PMID 32162783; details: HPLC-derived hydrophobicity; cited from earlier work
[2] = parameters: method as in doi:10.1016/j.molliq.2019.111527; details: calculated water–octanol partition coefficient; cited from earlier work
[3] = Density measurements: partial molar volume and thermal expansivity of the solute; assay type: physicochemical; details: 50 mM phosphate buffer pH 11; for α2^0, thermal volumetric expansivity of the solute: 20, 25, 30 °C; for V2^0, partial molar volume: 25 °C
Method: Partial molar volumes were estimated with a density meter Anton Paar DMA 5000 M at 20, 25, and 30 °C from the concentration–density dependency for compounds dissolved in 50 mM phosphate buffer (pH 11). The experimental procedure and the data analysis method were described previously.[36],[57],[58] The partial molar volume at 25 °C (V2^0) and thermal volumetric expansivity of the solute (α2^0 = ∂V2^0/∂T) were estimated globally from two independent dilution series. The density of pure solvent (d0) was extrapolated individually for each experimental condition (i.e., temperature and buffer preparation). The change of d0 with temperature was further used to determine thermal volumetric expansivity coefficient of the bulk buffer according to the formula α0 = −(∂d0/∂T)/d0.
According to the Lum, Chandler, and Weeks (LCW) theory, the hydrophobic interactions scale for solutes of subnanometer size with the volume of the molecule rather than its surface.[61] We have recently proposed partial molar volume as the extensive parameter to describe both the solute volume and the solute-induced reorganization of the solvation shell.[36],[57],[58],[62],[63] By analyzing density data at three temperatures (20, 25, and 30 °C), we could estimate the partial molar volume of the ligand (V2^0) and the bulk solvent density (d0(T)). We could further separate the thermal expansivity coefficient of the bulk solvent (α0) and the apparent expansivity of the solute (α2^0). The latter parameter is comprised mainly of the thermal expansion effect of the hydration shell. The values of α0 fell within the narrow range of (26.9 ± 1.3) × 10^–5 K^–1, which is close to the literature data for water (25.72 × 10^–5 K^–1 at 25 °C).[64] […] The solute thermal expansivity (α2^0), together with the change of isobaric heat capacity upon ligand binding (ΔCp,bind), has already been associated with the properties of the solvation layer.[65],[66] Importantly, α2^0 is proportional to the partial molar volume V2^0 (Figure 3D). So, V2^0 may be another descriptor of hydrophobic interactions. Consequently, the volume-normalized solute expansivity coefficient (α = α2^0/V2^0) is almost the same for all studied bromobenzotriazoles (232 ± 22 × 10^–5 K^–1). Importantly, this value substantially exceeds the thermal expansivity coefficient of the bulk buffer (α0 = 26.9 ± 1.3 × 10^–5 K^–1), clearly confirming that water organization changes with temperature more near the solute surface than in the bulk.

hCK2α [4] = molecular target: T1, hCK2α (Homo sapiens, UniProt P68400); parameters: method as in PMID 23155426; details: pH 7.5; cited from earlier work
T1 construct: made in house

hCK2α [5] = molecular target: T1, hCK2α; parameters: method as in PMID 25891901; details: cited from earlier work
hCK2α [6] = molecular target: T1, hCK2α; test: Fluorescence-monitored thermal denaturation (nanoDSF) of hCK2α complexes; assay type: binding; details: protein 2.5 μM, ligand 25 μM; for Tm (°C) at pH 7.5: hCK2α in complex with ligand; for ΔTm (°C) at pH 7.5: unfolding temperature with ligand minus without
Method: The samples were loaded into nanoDSF grade Standard Capillaries (NanoTemper Technologies) and analyzed using the Prometheus NT.48 nanoDSF device (NanoTemper Technologies). Thermal unfolding of the protein was monitored using a linear thermal ramp (1 °C·min^–1; 20–80 °C) with an excitation power of 30%.
This prompted us to measure the thermal stabilities of hCK2α and its complexes at pH 7.5 by fluorescence-monitored thermal denaturation (nanoDSF) (Table 2).

hCK2α [7] = molecular target: T1, hCK2α; test: Isothermal titration calorimetry (MicroCal iTC200), reverse titration; assay type: binding; details: for ΔGbind, free energy of binding: ITC; for ΔSrt, entropic term for loss of ligand rotational and translational degrees of freedom: calculated from ligand molecular mass; for Ts, temperature at which the entropy change upon ligand binding is zero: estimated from the linear fit of ΔS(T); for ΔSHE(Ts), hydrophobic-effect contribution to the entropy change upon binding: ≈ 1.35∙ΔCp,bind∙ln(Ts/386); for ΔSother, entropy change assigned to all other processes accompanying ligand binding: ΔSrt + ΔSHE(Ts) + ΔSother = 0
Method: ITC measurements were carried out using the MicroCal iTC200 (Malvern) calorimeter. The hCK2α samples were diluted to the required protein concentration with the 25 mM Tris-HCl pH 8 buffer containing 0.5 M NaCl. Stock ligand solutions were diluted with the appropriate DMSO volume prior to mixing with the buffer to obtain the required ligand concentration and a final DMSO content of 1%. Due to the limited solubility of halogenated benzotriazoles, all titration experiments were performed in the reverse mode, in which buffered ligand solution was placed in the calorimetric cell and titrated with the protein solution.[35]
(§1) In all experiments the maximum ligand concentration of 10 μM was used to minimize a possible contribution of the secondary binding site.

hCK2α [8] = molecular target: T1, hCK2α; test: Isothermal titration calorimetry (NanoITC); assay type: binding; details: pH 8
Method: as §1

[9] = iTC200, 15 °C, pH 8, independent experiments separately evaluated
[10] = iTC200, 20 °C, pH 8, independent experiments separately evaluated
[11] = iTC200, 25 °C, pH 8, independent experiments separately evaluated
[12] = iTC200, 30 °C, pH 8, independent experiments separately evaluated
[13] = iTC200, 35 °C, pH 8, independent experiments separately evaluated

T1 sequence (P68400 whole entry): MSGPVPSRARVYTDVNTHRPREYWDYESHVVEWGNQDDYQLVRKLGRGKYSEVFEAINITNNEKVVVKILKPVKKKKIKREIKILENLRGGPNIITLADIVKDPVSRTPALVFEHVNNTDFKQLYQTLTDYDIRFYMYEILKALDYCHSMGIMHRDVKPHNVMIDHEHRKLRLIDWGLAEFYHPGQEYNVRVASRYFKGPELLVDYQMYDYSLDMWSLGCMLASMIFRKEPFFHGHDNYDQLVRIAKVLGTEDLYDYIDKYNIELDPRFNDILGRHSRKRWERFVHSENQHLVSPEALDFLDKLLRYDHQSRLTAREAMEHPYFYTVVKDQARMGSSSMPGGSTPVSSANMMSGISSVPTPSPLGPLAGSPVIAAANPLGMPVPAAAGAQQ

SMILES | log(τ) [1] | log P [2] | α2^0, thermal volumetric expansivity of the solute [3] [cm^3·mol^–1·K^–1] | V2^0, partial molar volume [3] [cm^3·mol^–1] | IC50 (hCK2α [4]) [µM] | ΔTm (°C) at pH 8 (hCK2α [5]) [°C] | Tm (°C) at pH 7.5 (hCK2α [6]) [°C] | ΔTm (°C) at pH 7.5 (hCK2α [6]) [°C] | ΔGbind, free energy of binding (hCK2α [7]; 25 °C, pH 8) | ΔSrt, entropic term for loss of ligand rotational and translational degrees of freedom (hCK2α [7]) [J∙mol-1∙K-1] | Ts, temperature at which the entropy change upon ligand binding is zero (hCK2α [7]) [K] | Kd (hCK2α [7]; [9]) | Kd (hCK2α [7]; [10]) | Kd (hCK2α [7]; [11]) | Kd (hCK2α [7]; [12]) | Kd (hCK2α [7]; [13]) | ΔSHE(Ts), hydrophobic-effect contribution to the entropy change upon binding (hCK2α [7]) [J∙mol-1∙K-1] | ΔS (hCK2α [7]; [9]) | ΔS (hCK2α [7]; [10]) | ΔSother, entropy change assigned to all other processes accompanying ligand binding (hCK2α [7]) [J∙mol-1∙K-1] | other results
Brc1c(Br)c(Br)c2[nH]nnc2c1Br [4,5,6,7-Br4Bt, 4,5,6,7-tetrabromobenzotriazole] | –0.00 | 3.58 | 0.72 ± 0.28 | 194.1 ± 1.1 |  |  |  |  |  |  |  |  |  |  |  |  |  |  |  |  | 
Brc1cc2[nH]nnc2c(Br)c1Br [4,5,6-Br3Bt] | –0.20 | 2.96 | 0.49 ± 0.24 | 156.0 ± 1.0 | 0.38 ± 0.02 | 8.4 ± 0.1 | 53.84 ± 0.04 | 8.7 ± 0.1 | –39.5 ± 0.4 kJ·mol^–1 | -301 | 280 ± 36 | 0.089 µM and 0.051 µM | 0.114 µM and 0.13 µM | 0.123 µM and 0.116 µM | 0.189 µM and 0.109 µM | 0.16 µM and 0.215 µM | 295 ± 30 |  |  |  | Kd (hCK2α [8]; 15 °C): 0.065 ± 0.013 µM; ΔG (hCK2α [8]; 15 °C): -39.7 ± 0.5 kJ/mol; ΔH (hCK2α [8]; 15 °C): -29.0 ± 0.6 kJ/mol; ΔS (hCK2α [8]; 15 °C): 37 ± 4 J·mol-1·K-1; Kd (hCK2α [8]; 20 °C): 0.081 ± 0.019 µM; ΔG (hCK2α [8]; 20 °C): -39.8 ± 0.6 kJ/mol; ΔH (hCK2α [8]; 20 °C): -31.1 ± 0.9 kJ/mol; ΔS (hCK2α [8]; 20 °C): 30 ± 5 J·mol-1·K-1; Kd (hCK2α [8]; 25 °C): 0.042 ± 0.017 µM; ΔG (hCK2α [8]; 25 °C): -42.1 ± 1.0 kJ/mol; ΔH (hCK2α [8]; 25 °C): -39.6 ± 1.3 kJ/mol; ΔS (hCK2α [8]; 25 °C): 9 ± 4 J·mol-1·K-1; Kd (hCK2α [8]; 30 °C): 0.096 ± 0.017 µM; ΔG (hCK2α [8]; 30 °C): -40.7 ± 0.5 kJ/mol; ΔH (hCK2α [8]; 30 °C): -47.0 ± 1.2 kJ/mol; ΔS (hCK2α [8]; 30 °C): -21 ± 6 J·mol-1·K-1; Kd (hCK2α [8]; 35 °C): 0.217 ± 0.094 µM; ΔG (hCK2α [8]; 35 °C): -39.3 ± 1.1 kJ/mol; ΔH (hCK2α [8]; 35 °C): -56.5 ± 6.1 kJ/mol; ΔS (hCK2α [8]; 35 °C): -56 ± 23 J·mol-1·K-1
Brc1cc(Br)c2[nH]nnc2c1Br [4,5,7-Br3Bt] | –0.22 | 2.98 | 0.55 ± 0.23 | 174.7 ± 0.9 | 5.8 ± 0.9 | 5.2 ± 0.1 | 49.81 ± 0.07 | 4.6 ± 0.1 | –34.5 ± 0.4 kJ·mol^–1 | -301 | 316 ± 33 | 0.67 µM and 0.76 µM | 0.71 µM and 1.2 µM | 0.9 µM and 0.91 µM | 1.36 µM and 0.76 µM | 1.23 µM and 0.87 µM | 184 ± 16 | 69 ± 8 J·mol-1·K-1 and 56 ± 8 J·mol-1·K-1 | 53 ± 6 J·mol-1·K-1 and 47 ± 11 J·mol-1·K-1 | 118 ± 16 | ΔG (hCK2α [7]; [11]): -34.5 ± 0.5 kJ/mol and -34.5 ± 0.8 kJ/mol; ΔS (hCK2α [7]; [11]): 34 ± 5 J·mol-1·K-1 and 38 ± 9 J·mol-1·K-1; ΔS (hCK2α [7]; [12]): 24 ± 8 J·mol-1·K-1 and 34 ± 6 J·mol-1·K-1; ΔS (hCK2α [7]; [13]): 15 ± 6 J·mol-1·K-1 and 8 ± 6 J·mol-1·K-1
Brc1ccc2[nH]nnc2c1Br [4,5-Br2Bt] | –0.39 | 2.34 | 0.36 ± 0.21 | 151.7 ± 0.9 | 10.6 ± 0.9 | 3.5 ± 0.1 | 49.55 ± 0.05 | 4.4 ± 0.1 | –34.9 ± 0.4 kJ·mol^–1 | -291 | 299 ± 37 | 0.26 µM and 0.47 µM | 0.61 µM and 0.54 µM | 0.77 µM and 0.67 µM | 0.88 µM and 1.43 µM | 1.44 µM and 1.16 µM | 148 ± 17 | 21 ± 6 J·mol-1·K-1 and 22 ± 6 J·mol-1·K-1 | 8 ± 6 J·mol-1·K-1 and 7 ± 15 J·mol-1·K-1 | 143 ± 17 | ΔH (hCK2α [7]; [10]): -33.0 ± 1.5 kJ/mol and -33.0 ± 3.7 kJ/mol
Brc1cc(Br)c2n[nH]nc2c1 [4,6-Br2Bt] | –0.38 | 2.37 | 0.41 ± 0.21 | 155.4 ± 0.9 | 10 ± 2.2 | 3.6 ± 0.1 | 49.21 ± 0.04 | 4.0 ± 0.1 | –34.5 ± 0.4 kJ·mol^–1 | -291 | 301 ± 47 | 0.343 µM and 0.54 µM | 0.55 µM and 0.68 µM | 0.9 µM and 0.88 µM | 1.25 µM and 1.14 µM and 0.84 µM | 2.4 µM and 1.77 µM | 148 ± 20 | 26 ± 8 J·mol-1·K-1 and 23 ± 12 J·mol-1·K-1 | 7 ± 15 J·mol-1·K-1 and 11 ± 13 J·mol-1·K-1 | 143 ± 20 | ΔS (hCK2α [7]; [11]): 5 ± 8 J·mol-1·K-1 and 9 ± 15 J·mol-1·K-1; ΔS (hCK2α [7]; [13]): -26 ± 71 J·mol-1·K-1 and -26 ± 13 J·mol-1·K-1
Brc1ccc(Br)c2n[nH]nc12 [4,7-Br2Bt] | –0.55 | 2.37 | 0.19 ± 0.25 | 149.8 ± 1.0 | 72 ± 11 | 0.9 ± 0.1 | 47.15 ± 0.03 | 2.0 ± 0.1 |  |  |  |  |  |  |  |  |  |  |  |  | 
Brc1cccc2n[nH]nc12 [4-BrBt] | –0.65 | 1.72 | 0.30 ± 0.08 | 139.6 ± 0.3 | 119 ± 10 | 0.5 ± 0.1 | 45.92 ± 0.05 | 0.7 ± 0.1 |  |  |  |  |  |  |  |  |  |  |  |  | 
